Entries after “also recorded” stand apart in the source; their conditions may differ. Where two headings read alike, the source gives them in different places.
Key:
[1] = test system: patients who harbored a BRAF, NRAS, or KRAS mutation; conditions: cited from earlier work
[2] = healthy subjects; cited from earlier work
[3] = test system: P-gp/BCRP; conditions: literature, cited from earlier work
[4] = concentration-independent; cited from earlier work
[5] = cited from earlier work; for B/P (nonclinical), percentage of brain exposure relative to plasma: mice, literature
[6] = test system: human tumor xenograft models; conditions: highest doses tested; cited from earlier work
[7] = target: T1, MDR1 (ABCB1/P-gp) (Homo sapiens, UniProt P08183); assay: Vesicular transport substrate assay; assay type: in vitro ADME
T1 construct: expressed by SOLVO Biotechnology in mammalian (K and M) cells by chemical selection; purchased SOLVO Biotechnology; host or cells: mammalian (K and M) cells, overexpression by chemical selection
Experimental: (§1) Stock solutions of belvarafenib 2HCl (10 mM, 1.33 mM, 1 mM and 0.1 mM) were prepared in DMSO. Serial dilutions (7-step, 3-fold) were prepared in DMSO, and used as the test solutions in the inhibition assays (100-fold dilution). The dilution factor in substrate experiments was 100-fold.
(§2) Instruments used for detection include a Thermo Scientific Dionex UltiMate 3000 series UHPLC (Thermo Scientific, San Jose, CA) with a Thermo Scientific TSQ Quantum Access Max triple quadrupole MS; a Perkin Elmer MicroBeta2liquid scintillation counter (Perkin Elmer, Waltham MA) and a BMG Labtech FluoStar Omega multifunctional microplate reader (BMG Labtech, Offenburg, Germany).
(§3) Vesicular transport assays were performed with inside-out membrane vesicles prepared from cells overexpressing human ABC transporters. The transporter has been expressed by SOLVO Biotechnology in mammalian (K and M) cells by chemical selection.
(§4) Experimental method for vesicular transport substrate assay. The uptake of belvarafenib 2HCl into membrane vesicles was determined using inside-out membrane vesicles (total protein: 50 μg/well for MDR1, or 25 μg/well for BCRP) prepared from cells overexpressing BCRP or MDR1 ABC transporters as well as from control cells. Two incubation time points (2 and 20 min) and two concentrations (1 and 10 μM) of belvarafenib 2HCl were tested in the presence of ATP or AMP, to determine whether belvarafenib 2HCl is actively transported into the vesicles. Reaction mixtures as well as start reagents (MgATP and AMP solutions) were pre-incubated for 15 minutes at 32° C. for BCRP, and 37° C. for MDR1 assay. Reactions were initiated by addition of the start reagent (MgATP or AMP) to the appropriate wells. Reactions were quenched by the addition of 200 μL of ice-cold washing buffer and immediate filtration via glass fiber filters mounted to a 96-well plate (filter plate). The filters were washed 5×200 μL of ice-cold washing buffer and dried. The amount of accumulated belvarafenib 2HCl retained inside the vesicles was determined by LC-MS/MS detection after washing the vesicles 2 times with 100 μL MeOH:H2O (2:1).
(§5) In the vesicular transport substrate assays, the ATP-dependent transport of the TA as well as the ATP-dependent fold accumulation was calculated for each concentration and time point using the following equation, in both the transporter-containing and control vesicles:
(§6) ATP−dependent transport=nATP−NAMP Fold accumulation=nATP/nAMP
(§7) nATP is the amount of translocated TA in the presence of 4 mM ATP, in pmol/mg. nAMP is the amount of translocated TA in the presence of 4 mM AMP, in pmol/m. […]

[8] = target: T2, BCRP (ABCG2) (Homo sapiens, UniProt Q9UNQ0); assay: Vesicular transport substrate assay; assay type: in vitro ADME
T2 construct: expressed by SOLVO Biotechnology in mammalian (K and M) cells by chemical selection; purchased SOLVO Biotechnology; host or cells: mammalian (K and M) cells, overexpression by chemical selection
T2 sequence (Q9UNQ0 1-655): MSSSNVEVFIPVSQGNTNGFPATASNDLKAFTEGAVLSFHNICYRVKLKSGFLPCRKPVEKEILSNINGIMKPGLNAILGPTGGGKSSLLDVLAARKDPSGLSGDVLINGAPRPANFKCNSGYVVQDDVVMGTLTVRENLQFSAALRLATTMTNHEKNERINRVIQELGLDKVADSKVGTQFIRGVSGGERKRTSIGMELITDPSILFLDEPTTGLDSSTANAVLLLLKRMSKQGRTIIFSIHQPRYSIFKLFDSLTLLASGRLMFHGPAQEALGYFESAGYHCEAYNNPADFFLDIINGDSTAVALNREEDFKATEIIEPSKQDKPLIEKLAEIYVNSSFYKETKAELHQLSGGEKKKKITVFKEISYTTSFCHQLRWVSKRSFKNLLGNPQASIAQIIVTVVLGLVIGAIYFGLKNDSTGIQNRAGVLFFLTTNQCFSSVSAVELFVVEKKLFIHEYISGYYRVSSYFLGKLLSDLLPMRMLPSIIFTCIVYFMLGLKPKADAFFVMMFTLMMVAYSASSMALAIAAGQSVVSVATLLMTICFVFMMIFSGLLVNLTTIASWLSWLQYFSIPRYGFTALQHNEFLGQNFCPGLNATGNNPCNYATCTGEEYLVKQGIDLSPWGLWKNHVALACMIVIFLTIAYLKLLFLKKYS
Experimental: as §1, §2, §3, §4, §5, §6, §7

[9] = target: T1, MDR1 (ABCB1/P-gp); assay: Vesicular transport inhibition assay; assay type: in vitro ADME; conditions: MDR1-mediated NMQ accumulation
Experimental: as §1, §2, §3
(§8) Parameters of the vesicular transport assays are listed in Table 6 where: “BCRP” refers to breast cancer resistance protein; “MDR1” refers to multidrug resistance protein 1; “E3S” refers to Estrone-3-sulfate; and “NMQ” refers to N-methyl quinidine.
(§9) Belvarafenib 2HCl was incubated with membrane vesicle preparations (total protein: 50 μg/well for MDR1, and 25 µg/well for BCRP) and the probe substrate. Incubations were carried out in the presence of 4 mM ATP or AMP to distinguish between transporter-mediated uptake and passive diffusion into the vesicles. Belvarafenib 2HCl was added to the reaction mixture in 0.75 μL of solvent ([…] of the final incubation volume). Reaction mixtures were pre-incubated for 15 minutes at 37±1° C. (or 32±1° C. for BCRP). Reactions were initiated by the addition of 25 μL of 12 mM MgATP (or 12 mM AMP in assay buffer as a background control), preincubated separately. Reactions were quenched by the addition of 200 μL of ice-cold washing buffer and immediate filtration via glass fiber filters mounted to a 96-well plate (filter plate). The filters were washed (5×200 μL of ice-cold washing buffer), dried and the amount of substrate inside the filtered vesicles was determined by liquid scintillation counting.
(§10) The controls were as follows. Incubation with AMP provided background activity values for all data points. Incubation with probe substrate (solvent only) provided 100% activity values. A reference inhibitor served as positive control for inhibition.
(§11) For all wells the amount of the translocated probe substrate was determined in cpm. Relative activities were calculated using the following equation: Relative Activity %=(A−B)/(C−D)*100. A is the amount of translocated substrate in the presence of TA and ATP. B is the amount of translocated substrate in the presence of TA and AMP. C is the amount of translocated substrate in the presence of solvent and ATP. D is the amount of translocated substrate in the presence of solvent and AMP.
(§12) Microsoft Excel 2010 (Microsoft Corporation, Redmond, WA) was used for basic data processing and GraphPad Prism 5.0 (GraphPad Software Inc., San Diego, CA) was used for curve fitting and determination of reaction parameters. In vesicular transport inhibition assays, the IC50 (μM) was calculated, where applicable. IC50 was defined as the concentration of TA required to inhibit maximal activity by 50%. IC50 values were derived from a four parametric logistic equation [log(inhibitor) vs. response−variable slope]; the curve was fitted to the relative activity vs. TA concentration plot using non-linear regression.

[10] = target: T2, BCRP (ABCG2); assay: Vesicular transport inhibition assay; assay type: in vitro ADME; conditions: BCRP-mediated E3S accumulation
Experimental: as §1, §2, §3, §8, §9, §10, §11, §12

[11] = Stage III of Study MEK4592g, 18 patients
[12] = cobimetinib single agent, Study MEK4592g

T1 sequence (P08183 whole entry): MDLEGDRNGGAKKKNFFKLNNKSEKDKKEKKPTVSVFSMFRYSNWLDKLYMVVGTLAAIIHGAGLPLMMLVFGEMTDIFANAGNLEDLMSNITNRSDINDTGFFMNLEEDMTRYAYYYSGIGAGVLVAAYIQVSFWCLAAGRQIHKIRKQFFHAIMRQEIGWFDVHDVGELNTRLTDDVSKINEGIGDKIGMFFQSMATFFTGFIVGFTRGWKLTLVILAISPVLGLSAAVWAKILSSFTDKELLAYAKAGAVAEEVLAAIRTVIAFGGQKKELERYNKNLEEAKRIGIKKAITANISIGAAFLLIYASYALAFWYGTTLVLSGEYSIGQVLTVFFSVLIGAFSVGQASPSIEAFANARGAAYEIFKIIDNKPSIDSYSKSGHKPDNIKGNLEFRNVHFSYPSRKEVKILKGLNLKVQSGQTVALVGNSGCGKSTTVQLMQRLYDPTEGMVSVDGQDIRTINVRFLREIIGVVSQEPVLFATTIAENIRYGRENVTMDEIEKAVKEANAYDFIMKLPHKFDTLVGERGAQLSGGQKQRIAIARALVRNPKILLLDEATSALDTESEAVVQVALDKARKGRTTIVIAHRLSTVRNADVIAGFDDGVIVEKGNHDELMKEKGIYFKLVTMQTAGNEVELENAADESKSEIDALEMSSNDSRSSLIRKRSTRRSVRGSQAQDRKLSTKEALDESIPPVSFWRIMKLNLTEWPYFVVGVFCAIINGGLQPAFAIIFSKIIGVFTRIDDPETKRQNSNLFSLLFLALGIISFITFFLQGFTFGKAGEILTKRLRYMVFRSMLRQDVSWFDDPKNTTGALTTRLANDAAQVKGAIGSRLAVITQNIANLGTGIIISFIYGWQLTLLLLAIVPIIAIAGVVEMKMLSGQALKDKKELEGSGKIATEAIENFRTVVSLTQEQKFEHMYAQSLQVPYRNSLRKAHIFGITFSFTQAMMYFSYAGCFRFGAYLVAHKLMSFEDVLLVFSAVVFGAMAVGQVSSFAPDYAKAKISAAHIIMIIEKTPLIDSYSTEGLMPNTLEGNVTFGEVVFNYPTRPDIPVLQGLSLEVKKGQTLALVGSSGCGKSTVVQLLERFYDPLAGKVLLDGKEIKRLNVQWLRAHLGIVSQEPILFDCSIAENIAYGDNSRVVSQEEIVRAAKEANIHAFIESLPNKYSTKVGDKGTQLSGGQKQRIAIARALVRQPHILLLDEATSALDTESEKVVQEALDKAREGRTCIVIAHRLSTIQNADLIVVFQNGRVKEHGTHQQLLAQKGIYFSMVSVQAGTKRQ

SMILES: O=C(c1ccc(F)c(F)c1Nc1ccc(I)cc1F)N1CC(O)([C@@H]2CCCCN2)C1 [Cobimetinib]
- patients with SD as best overall response [1, 11]: 22.2%
- patients with unconfirmed tumor responses [1, 11]: 11.1%
- patients with confirmed partial response (PR) [1, 12]: 6.2%
- patients with progressive disease [1, 12]: 41.2%
- food effect on pharmacokinetics, fed state compared with fasted state [2]: not altered
- P-gp/BCRP efflux substrate? [3]: Yes (P-gp)
- binding to plasma proteins [4]: 95%
- B/P (nonclinical), percentage of brain exposure relative to plasma [5]: 30%
- tumor regression [6]: up to 100%

SMILES: C[C@@H](NC(=O)c1ncnc(N)c1Cl)c1ncc(C(=O)Nc2cc(C(F)(F)F)c(Cl)cn2)s1 [DAY101]
- P-gp/BCRP efflux substrate? [3]: Yes (BCRP)
- B/P (nonclinical), percentage of brain exposure relative to plasma [5]: 20-34% ^

SMILES: CC(C)(C)c1nc(-c2cccc(NS(=O)(=O)c3c(F)cccc3F)c2F)c(-c2ccnc(N)n2)s1 [Dabrafenib]
- P-gp/BCRP efflux substrate? [3]: Yes (P-gp + BCRP)
- P-gp/BCRP efflux substrate? ([3]; listed as dabrafenib): is a P-gp and a BCRP efflux substrate
- B/P (nonclinical), percentage of brain exposure relative to plasma [5]: 2-4%

SMILES: COC(=O)N[C@@H](C)CNc1nccc(-c2cn(C(C)C)nc2-c2cc(Cl)cc(NS(C)(=O)=O)c2F)n1 [Encorafenib]
- P-gp/BCRP efflux substrate? [3]: Yes (P-gp + BCRP)
- P-gp/BCRP efflux substrate? ([3]; listed as encorafenib): is a P-gp and a BCRP efflux substrate
- brain to plasma ratio ([5]; literature values): about 0.004
- B/P (nonclinical), percentage of brain exposure relative to plasma [5]: 0.4%

SMILES: Cn1cnc2c(F)c(Nc3ccc(Br)cc3Cl)c(C(=O)NOCCO)cc21 [Selumetinib]
- P-gp/BCRP efflux substrate? [3]: Yes (P-gp + BCRP)
- B/P (nonclinical), percentage of brain exposure relative to plasma [5]: 2%

SMILES: CC(=O)Nc1cccc(-n2c(=O)n(C3CC3)c(=O)c3c(Nc4ccc(I)cc4F)n(C)c(=O)c(C)c32)c1 [Trametinib]
- P-gp/BCRP efflux substrate? [3]: Yes (P-gp + BCRP)
- B/P (nonclinical), percentage of brain exposure relative to plasma [5]: 15%

SMILES: CCCS(=O)(=O)Nc1ccc(F)c(C(=O)c2c[nH]c3ncc(-c4ccc(Cl)cc4)cc23)c1F [Vemurafenib]
- P-gp/BCRP efflux substrate? [3]: Yes (P-gp + BCRP)
- P-gp/BCRP efflux substrate? ([3]; listed as vemurafenib): is a P-gp and a BCRP efflux substrate
- B/P (nonclinical), percentage of brain exposure relative to plasma [5]: 0.4-1% ^

SMILES: Cc1ccc2c(Nc3cccc(Cl)c3F)nccc2c1NC(=O)c1csc2c(N)ncnc12 [belvarafenib 2HCl]
- Maximum ATP dependent fold accumulation in transporter expressing vesicles ([7]; 1 and 10 μM, 2 and 20 min): 1.23
- Substrate ([7]; MDR1 VT): probably not a substrate; also recorded: Unlikely
- Maximum ATP dependent fold accumulation in transporter expressing vesicles ([8]; 1 and 10 μM, 2 and 20 min): 1.51
- Substrate ([8]; BCRP VT): probably not a substrate; also recorded: Unlikely
- IC50 ([9]; estimated, bottom constrain (0%), inhibition did not reach 50%): 29.6 µM
- inhibition at 13.3 µM ([9]; human, probe N-methyl quinidine (NMQ), highest applied concentration (13.3 μM), read-out: Maximum inhibition (% of control)): 32%
- Maximum inhibition (% of control) ([10]; 0.02-13.3 μM): 99.8%
- IC50 ([10]; estimated, top of the curve constrained at 100%): 0.011 µM
- inhibition at 0.02 µM ([10]; human, probe estrone-3-sulfate (E3S), 0.02 μM, read-out: inhibition at the lowest investigated concentration): 70%

Source: US20240173329A1, “BELVARAFENIB FOR USE IN TREATMENT OF BRAIN CANCERS” (Genentech, Inc., priority 2021, published 2024)
